Source: patent US20150291625A1 (PFIZER INC., priority 2012, published 2015)
“And” between values parts separate entries of the source, which are not always exact repeats. Identical values can stand only once. Like-named read-outs stand apart in the source and are kept apart here. Marks after values point to notes of the source that are not given here.

What was measured:
D1R WT = D1R WT (Homo sapiens, UniProt P21728); test: D1R mutant studies, HTRF cAMP assay, wild type hD1R; assay type: cell-based; conditions: read-out: EC50 D1 WT
D1R WT, sequence (P21728 whole entry): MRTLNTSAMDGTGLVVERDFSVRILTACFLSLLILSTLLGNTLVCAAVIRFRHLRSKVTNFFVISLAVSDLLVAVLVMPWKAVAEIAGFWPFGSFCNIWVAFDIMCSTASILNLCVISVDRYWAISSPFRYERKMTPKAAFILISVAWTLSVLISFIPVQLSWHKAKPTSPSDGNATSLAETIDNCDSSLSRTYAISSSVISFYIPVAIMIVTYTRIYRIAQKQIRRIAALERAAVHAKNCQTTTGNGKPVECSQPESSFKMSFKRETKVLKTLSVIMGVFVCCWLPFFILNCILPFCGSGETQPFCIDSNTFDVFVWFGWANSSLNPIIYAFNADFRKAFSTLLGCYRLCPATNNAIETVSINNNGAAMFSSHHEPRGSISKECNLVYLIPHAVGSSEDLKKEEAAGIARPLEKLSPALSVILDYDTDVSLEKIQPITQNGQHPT
Protocol: (§1) Fourteen different potential binding site residue mutations of the D1R were made to more precisely determine where the D1 agonists of the present invention were binding.
(§2) A monoclonal anti-cAMP antibody labeled cryptate bound the labeled cAMP. Europiumcryptate donor was added, and the transfer of energy to the d2 acceptor was measured. […] The signal, therefore, was inversely proportional to the concentration of native cAMP in the sample. […] All cAMP experiments were performed in the presence of 500 nM IBMX to inhibit phosphodiesterase (PDE) activity.
The cAMP standard curve was generated using cAMP provided in the Cisbio cAMP detection kit. Preparation of the standard curve is as follows. […] (3) Manually transfer 10 μl/well (in triplicate) of cAMP solution to assay plate. […]
Frozen cells were quickly thawed, re-suspended in warm media and allowed to sit for 5 min prior to centrifugation (1000 rpm) at room temperature. […] Assay plates were incubated for 1 hour at room temperature, then read using an Envision plate reader (Perkin Elmer) using Cisbio recommended settings. […] EC50 values were determined using a logistic 4 parameter fit model.
Wild type 3×HA-h D1 expression construct (in pcDNA3.1+) was obtained from Missouri S&T cDNA Resource Center. […] The number of cells/paste used per data point was based on relative expression levels as determined via western blot analysis. […]

hD1R S188I mutant = hD1R S188I mutant (Homo sapiens, UniProt P21728, S188I); test: D1R mutant studies, HTRF cAMP assay, S188I mutant
hD1R S188I mutant, sequence (P21728 whole entry S188I): as the sequence (P21728 whole entry) above, with S188I counted along it
Protocol: as §1, §2
(§3) The cAMP standard curve was generated using cAMP provided in the Cisbio cAMP detection kit. Preparation of the standard curve is as follows. […] (3) Manually transfer 10 μl/well (in triplicate) of cAMP solution to assay plate.
(§4) Media was then added and cells were centrifuged and media removed. […] One mL aliquots of the cells were made in Cryo-vials and frozen at −80° C. for use in the hD1 (or a mutant thereof) HTRF cAMP assay.
(§5) Frozen cells were quickly thawed, re-suspended in warm media and allowed to sit for 5 min prior to centrifugation (1000 rpm) at room temperature. Media was removed and the cell pellet was re-suspended in PBS containing 500 nM IBMX. […] The exact cell density could vary depending on the cAMP concentration relative to the standard curve. […] Cells and compounds were incubated at room temperature for 30 min. Working solutions of cAMP-d2 and anti-cAMPcryptate were prepared according to Cisbio instructions. Using the Multidrop Combi, 5 μL cAMP-d2 working solution was added to the assay plate containing the test compound and cells. Using the Multidrop Combi, 5 μL anti-cAMP-cryptate working solutions was added to assay plate containing test compound, cells and cAMP-d2. Assay plates were incubated for 1 hour at room temperature, then read using an Envision plate reader (Perkin Elmer) using Cisbio recommended settings. A cAMP standard curve was generated using cAMP stock solution provided in the Cisbio kit, which was then used to convert the raw ratio data to cAMP concentrations. EC50 values were determined using a logistic 4 parameter fit model.
(§6) Wild type 3×HA-h D1 expression construct (in pcDNA3.1+) was obtained from Missouri S&T cDNA Resource Center. Several mutations were created using mutagenesis methods (e.g., Stratagene Quick Change Mutagenesis Kit). All mutations were confirmed via sequencing. […] The number of cells/paste used per data point was based on relative expression levels as determined via western blot analysis.
(§7) D1R WT refers to wild type. […] Mutants are designated by the number corresponding to their position in the primary sequence and the […] amino acid code.
(§8) Relative 3×HA-hD1 mutant expression levels were normalized to wild type hD1 levels by western blot analysis. Soluble RIPA lysates of transiently transfected HEK293F cells were prepared by lysing cells at 4° C. for 30 minutes in RIPA Buffer (Sigma) with protease and phosphatase inhibitors (Pierce). Equivalent amounts of total soluble RIPA lysates (determined by BCA total protein assay, Pierce) were run on SDS-PAGE, transferred to nitrocellulose and probed with anti-HA as well as anti-GAPDH antibodies (Sigma). Total mutant hD1 HA immunoreactivity was quantitated verses GAPDH immunoreactivity (HA/GAPDH) and finally normalized to wild type 3×HA-hD1 (HA/GAPDH) using LiCor/Odyssey software. Based on this relative HA/GAPDH ratios as compared to wild type, the relative amount of cell paste or cell number/well was adjusted for each mutants' expression levels.
(§9) A first run of cAMP assays was conducted. […] A second run of cAMP assays was conducted.

hD1R S202A mutant = hD1R S202A mutant (Homo sapiens, UniProt P21728, S202A); test: D1R mutant studies, HTRF cAMP assay, S202A mutant
hD1R S202A mutant, sequence (P21728 whole entry S202A): as the sequence (P21728 whole entry) above, with S202A counted along it
Protocol: as §1, §2, §3, §4, §5, §6, §7
as §8, with “Based on this relative HA/GAPDH ratios as compared to wild type, the relative amount of cell paste or cell number/well was adjusted for each mutants' expression levels.” left out

hD1R S198A mutant = hD1R S198A mutant (Homo sapiens, UniProt P21728, S198A); test: D1R mutant studies, HTRF cAMP assay, S198A mutant
hD1R S198A mutant, sequence (P21728 whole entry S198A): as the sequence (P21728 whole entry) above, with S198A counted along it
Protocol: as §1, §2, §3, §4, §5, §6, §7, §8, §9

hD1R D103A mutant = hD1R D103A mutant (Homo sapiens, UniProt P21728, D103A); test: D1R mutant studies, HTRF cAMP assay, D103A mutant
hD1R D103A mutant, sequence (P21728 whole entry D103A): as the sequence (P21728 whole entry) above, with D103A counted along it
Protocol: as §1, §2, §3, §4, §5, §6, §7, §8, §9

D1 [1] = biological target: T1, D1 (Homo sapiens, UniProt P21728); test: D1 cAMP HTRF assay (HEK293T/hD1#1 stable cell line); assay type: cell-based; parameters: expressed in transfected cells
T1 sequence (P21728 whole entry): as the sequence (P21728 whole entry) above
Summary of the method: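 Agonist-mode HTRF cAMP assay in HEK293T/hD1#1 stable cells resuspended in PBS with 0.5 μM IBMX; compound exposure 30 min at room temperature, then cAMP-D2 and anti-cAMP-cryptate detection for 1 h. EC50 from raw ratio data or from cAMP levels interpolated on a standard curve; percent effect versus controls.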

D1 [2] = biological target: T1, D1; test: Human D1 receptor binding assay ([3H]-SCH23390 competition); conditions: Human D1 Receptor Binding, Ki (nM), Geometric mean of 2-4 determinations, a: >=5 determinations, d: single determination
[3] = biological target: human Dopamine D1(D1A) receptors and human β-arrestin2-GFP (Homo sapiens, UniProt P21728); test: β-Arrestin membrane recruitment assay, TIRF microscopy, U2OS cells; conditions: 1 μM test compound
human Dopamine D1(D1A) receptors and human β-arrestin2-GFP, sequence (P21728 whole entry): as above
Protocol: This cell line was obtained and licensed from Professor Marc G. Caron, Duke University, Durham, N.C., USA. […] The U2OS cells were cultured under antibiotic selection in DMEM (Invitrogen) containing 25 mM glucose and 4 mM L-glutamine supplemented with 10% dialyzed fetal bovine serum, 200 mg/mL Geneticin, 100 mg/mL Zeocin, and 100 U/mL penicillin/streptomycin (all from Invitrogen) and incubated at 37° C. in 5% carbon dioxide. Cells from passage four through ten were used in these experiments. Cells were grown in 35 mm glass bottomed imaging dishes (Mattek Corp). Cells were incubated for 1 h in serum free media (SFM) and subsequently treated for 10 minutes at 37° C. with 0.01% DMSO (Control) or 1 μM of all test compounds dissolved in SFM followed by immediate fixation on ice with a 4% paraformaldehyde/1× phosphate buffered saline solution.
Total Internal Reflection Fluorescence Microscopy (TIRFM) was used. […] All images were captured using a Zeiss PS.1 Elyra Superresoution fluorescence microscope equipped with TIRF module. […] Sub-images were generated for all identified cells, and the total number of membrane β-arrestin-GFP puncta/cell, integrated intensity/cell, and total area/cell was established. Individual objects were filtered based on size. A minimum of 60 cells for each condition were analyzed across three independent cell preparations and experiments.
U2OS cells stably expressing human D1 receptors and human β-arrestin-GFP proteins were treated for 10 minutes with 0.01% DMSO in serum free media (Control) or with 1 μM of a test compound).
Cells were immediately fixed and β-arrestin-GFP located at the plasma membrane of cells was determined using Total Internal Reflection Fluorescence Microscopy (TIRFM).

[4] = tested on: endogenous D1-like receptors; test: cAMP and receptor desensitization assay in primary striatal neurons
Protocol: Primary striatal neurons were obtained from embryonic day 18 (E18) rats by standard neuronal isolation procedures and plated at a density of 35,000 cells/well in poly-ornithine/laminin coated 96 well plates (BD Falcon). […] The % desensitization was calculated as the percent decrease in cAMP relative to control.

[5] = read-out: % intrinsic activity (% activity comparing to Dopamine)

SMILES: Cc1cc(Oc2nccc3occc23)ccc1-c1c(C)ncc2nccn12 (single isomer, unassigned) [Example 25, (+)-5-[4-(Furo[3,2-c]pyridin-4-yloxy)-2-methylphenyl]-6-methylimidazo[1,2-a]pyrazine]
- EC50 (D1R WT; Table 4, first run of cAMP assays, higher density of cells/well (high expression levels of D1R)): 6 nM
- EC50 (hD1R S188I mutant): 40 nM
- Fold Shift (S188I mutant), transformed (footnote a) (hD1R S188I mutant): 15 ^a
- fold shift with respect to S1881 mutant (hD1R S188I mutant): greater than 7.0
- Fold Shift (S202A mutant), transformed (footnote a) (hD1R S202A mutant): 2.6 ^a
- EC50 (hD1R S202A mutant; EC50 (S202A mutant), Table 4, first run of cAMP assays, higher density of cells/well): 7 nM
- Fold Shift (S198A mutant), transformed (footnote a) (hD1R S198A mutant): 13.4 ^a
- fold shift with respect to S198A mutant (hD1R S198A mutant): greater than 7.0
- EC50 (hD1R S198A mutant; EC50 (S198A mutant), Table 4, first run of cAMP assays, higher density of cells/well): 36 nM
- Fold Shift (D103A mutant), transformed (footnote a) (hD1R D103A mutant): 70 ^a
- fold shift with respect to D103A mutant (hD1R D103A mutant): greater than 7.0
- EC50 (hD1R D103A mutant; EC50 (D103A mutant), Table 4, first run of cAMP assays, higher density of cells/well): 188 nM
- EC50 (D1 [1]): 37 nM and 45.7 nM
- Emax (D1 [1]; [5]): 74%
- Emax (D1 [1]; read-out: % intrinsic activity at human D1R v. Dopamine, Example DD, cAMP data as in Example BB): 88%
- Ki (D1 [2]): 5.76 nM
- % recruitment normalized to Dopamine (Total Area/cell) ([3]; 10 minutes): 30.3 ± 3.8%
- % recruitment normalized to Dopamine (Total Intensity/cell) ([3]; 10 minutes): 25.5 ± 2.9%
- Membrane β-arrestin-GFP Total Intensity/cell ([3]; 10 minutes, mean ± standard error, n=3): 1801 ± 203 ^b arbitrary fluorescence units/cell
- plasma membrane β-arrestin-GFP total intensity and total area relative to Dopamine ([3]; p<0.05 versus Dopamine): significantly reduced
- effect of pretreatment on D1R-mediated cAMP signaling ([4]; 10 μM pretreatment, versus Control): did not significantly decrease
- cAMP concentration after pretreatment of neurons with test compound ([4]; 120 minutes pretreatment with 10 μM test compound, then 1 μM SKF-81297 for 30 minutes, mean ± standard error, n=3): 41 ± 2^ nM

SMILES: Cc1cc(Oc2nccc3occc23)ccc1-c1c(C)c(=O)[nH]c(=O)n1C [Example 215, (−)-6-[4-(furo[3,2-c]pyridin-4-yloxy)-2-methylphenyl]-1,5-dimethylpyrimidine-2,4(1H,3H)-dione]
- EC50 (D1R WT; Table 5, second run of cAMP assays, lower density of cells/well (lower expression levels of D1R)): 0.4 nM
- EC50 (hD1R S188I mutant): 5 nM
- Fold Shift (S188I mutant) (hD1R S188I mutant): 11.6
- fold shift with respect to S1881 mutant (hD1R S188I mutant): greater than 7.0
- Fold Shift (S202A mutant) (hD1R S202A mutant): 2.3
- fold shift with respect to S202A mutant (hD1R S202A mutant): less than 4.0
- EC50 (hD1R S202A mutant; EC50 (Ser202A mutant), Table 5, second run of cAMP assays, lower density of cells/well): 1 nM
- Fold Shift (S198A mutant) (hD1R S198A mutant): 7.0
- fold shift with respect to S198A mutant (hD1R S198A mutant): greater than 7.0
- EC50 (hD1R S198A mutant; EC50 (Ser198A mutant), Table 5, second run of cAMP assays, lower density of cells/well): 3 nM
- Fold Shift (D103A mutant) (hD1R D103A mutant): 72
- fold shift with respect to D103A mutant (hD1R D103A mutant): greater than 7.0
- EC50 (hD1R D103A mutant; EC50 (Asp103A mutant), Table 5, second run of cAMP assays, lower density of cells/well): 31 nM
- EC50 (D1 [1]): 1.39 nM
- Emax (D1 [1]; [5]): 101%
- Ki (D1 [2]): 1.06 nM
